Results published in patent publication US20260335277A1, “CHLOROTONIL DERIVATIVES” (priority 2023, published 2026).
In brackets after ≈: the same amount, converted by molar mass. Read-outs that look alike come from different tables or passages of the source.

Experiments:
[1] = system: E. faecium DSM-17050 (vancomycin-resistant, VRE); assay: MIC testing (broth microdilution, EUCAST); assay type: cell-based; details: for MIC: Enterococcus faecium
Protocol: (§1) Minimal inhibitory concentration (MIC) of the compounds in the present invention was determined using broth microdilution performed according to EUCAST guidelines (ISO20776-1:2019). S. aureus ATCC29213 and E. faecalis ATCC29212 served as quality control strains.

[2] = system: E. faecalis ATCC-29212; assay: MIC testing (broth microdilution, EUCAST); assay type: cell-based; details: for MIC: Enterococcus faecalis, ATCC29212, E. faecalis ATCC-29212; for MIC E. faecalis: E. faecalis ATCC-29212
Protocol: as §1

[3] = system: S. aureus Newman; assay: MIC testing (broth microdilution, EUCAST); assay type: cell-based; details: for MIC: Staphylococcus aureus, NEWMAN
Protocol: as §1

[4] = system: S. epidermidis DSM-28765; assay: MIC testing (broth microdilution, EUCAST); assay type: cell-based; details: for MIC: Staphylococcus epidermidis, DSM28765, S. epidermidis DSM-28765, read-out: MIC S. epiderm.; for MIC S. epiderm.: S. epidermidis DSM-28765
Protocol: as §1

[5] = system: S. aureus N315 (methicillin-resistant, MRSA); assay: MIC testing (broth microdilution, EUCAST); assay type: cell-based; details: for MIC: Staphylococcus aureus, MRSA
Protocol: as §1

[6] = system: E. faecium DSM-20477; assay: MIC testing (broth microdilution, EUCAST); assay type: cell-based; details: for MIC: Enterococcus faecium, DSM20477, E. faecium DSM-20477; for MIC E. faecium: E. faecium DSM-20477
Protocol: as §1

[7] = system: zebrafish larvae; assay: Toxicity in zebrafish larvae (MTC / IC50); assay type: in vivo; details: for IC50 in zebrafish larvae: exposed 3 days post fertilization, monitored 48 h; for Selectivity Index S. aureus: zebrafish IC50 / MIC S. aureus Newman
Protocol: (§2) For toxicity screening, zebrafish larvae were exposed three days post fertilization and monitored for 48 h until five days post fertilization. All malformations and pathophysiological phenotypes were noted and used to determine the inhibitory concentration (IC50) of the respective derivative against zebrafish larvae. The selectivity index (SI) was then calculated using the IC50 and the MIC of either S. aureus or P. falciparum 3D7.

[8] = Toxicity in zebrafish larvae (MTC / IC50); assay type: in vivo; details: zebrafish, zebrafish larvae
Protocol: as §2

Row | Structure (SMILES) | MIC [1] | MIC [2] | MIC [3] | MIC [4] | MIC [5] | MIC [6] | MIC VRE [1] | MIC E. faecalis [2] | MIC S. aureus [3] | MIC S. epiderm. [4] | MIC MRSA [5] | MIC E. faecium [6] | IC50 in zebrafish larvae [7] | Selectivity Index S. aureus [7] | Selectivity Index P. falc 3D7 ([7]; zebrafish IC50 vs P. falciparum 3D7) | selectivity ratio ([8]; zebrafish IC50 / MIC S. aureus Newman, read-out: Selectivity Index S. aureus) | selectivity ratio ([8]; zebrafish IC50 vs P. falciparum 3D7, read-out: Selectivity Index P. falc 3D7)
1 | CC1=C[C@@H](C)[C@H]2[C@@H]3C(=O)[C@@](F)(Cl)C(=O)[C@H](C)C(=O)O[C@@H](C)/C=C/C=C\[C@@H](C)[C@@H]3C=C[C@@H]2C1 [ChA-4′F] | 1.6 µg/mL (≈ 3.46 µM) | 1.6 µg/mL (≈ 3.46 µM) | 0.8 µg/mL (≈ 1.73 µM) | > 6.4 µg/mL | 1.6 µg/mL (≈ 3.46 µM) | 0.8 µg/mL (≈ 1.73 µM) |  |  |  |  |  |  |  |  |  |  | 
2 | CC1=C[C@@H](C)[C@H]2[C@@H]3C(=O)[C@@](C)(Cl)C(=O)[C@H](C)C(=O)O[C@@H](C)/C=C/C=C\[C@@H](C)[C@@H]3C=C[C@@H]2C1 [ChA-4′Me] | 0.8 µg/mL (≈ 1.74 µM) | 1.6 µg/mL (≈ 3.49 µM) | 1.6 µg/mL (≈ 3.49 µM) | > 1.6 µg/mL | 1.6 µg/mL (≈ 3.49 µM) | 0.8 µg/mL (≈ 1.74 µM) |  |  |  |  |  |  |  |  |  |  | 
3 | C=C1C[C@H]2C=C[C@@H]3[C@@H](C(=O)C(Cl)(Cl)C(=O)[C@H](C)C(=O)O[C@@H](C)/C=C/C=C\[C@H]3C)[C@@H]2[C@H](C)C1Cl (some centres unmarked) [ChA-9′Cl] | 0.2 µg/mL (≈ 0.389 µM) | 0.4 µg/mL (≈ 0.778 µM) | 0.4 µg/mL (≈ 0.778 µM) | 0.4 µg/mL (≈ 0.778 µM) | 0.4 µg/mL (≈ 0.778 µM) | 0.2 µg/mL (≈ 0.389 µM) |  |  |  |  |  |  |  |  |  |  | 
4 | CC1=CC(C)C2C(C=CC3C(C)C=CC=CC(C)OC(=O)C(C)C(=O)C(Cl)=C(O)C32)C1 (centres unmarked) [ChB1, reference compound] |  |  |  |  |  |  | 0.1 µg/mL (≈ 0.225 µM) | 0.2 µg/mL (≈ 0.449 µM) | 0.2 µg/mL (≈ 0.449 µM) | 0.4 µg/mL (≈ 0.899 µM) | 0.8 µg/mL (≈ 1.8 µM) | 0.1 µg/mL (≈ 0.225 µM) |  |  |  |  | 
5 | CC1=CC(C)C2C(C=CC3C(C)C=CC=CC(C)OC(=O)CC(=O)C(Cl)=C(O)C32)C1 (centres unmarked) [ChB1-2′DM, 2′Demethylchlorotonil] |  |  |  |  |  |  | 0.4 µg/mL (≈ 0.928 µM) | 0.4 µg/mL (≈ 0.928 µM) | 0.4 µg/mL (≈ 0.928 µM) | 1.6 µg/mL (≈ 3.71 µM) | 0.4 µg/mL (≈ 0.928 µM) | 0.4 µg/mL (≈ 0.928 µM) | 33.24 µM | 35.8 |  |  | 
6 | CC1=CC(C)C2C(C=CC3C(C)C=CC=CC(C)OC(=O)C(C)(C)C(=O)C(Cl)=C(O)C32)C1 (centres unmarked) [ChB1-2′Me] |  |  |  |  |  |  | 0.4 µg/mL (≈ 0.871 µM) | 0.8 µg/mL (≈ 1.74 µM) | 0.4 µg/mL (≈ 0.871 µM) | 0.8 µg/mL (≈ 1.74 µM) | 0.8 µg/mL (≈ 1.74 µM) | 0.2 µg/mL (≈ 0.436 µM) | 12.31 µM | 14.1 | 114.0 |  | 
7 | CC1=C[C@@H](C)[C@H]2[C@@H]3C(=O)C(Cl)=C([O-])[C@H](C)C(=O)O[C@@H](C)/C=C/C=C\[C@@H](C)[C@@H]3C=C[C@@H]2C1.CC1=C[C@@H](C)[C@H]2[C@@H]3C(=O)C(Cl)=C([O-])[C@H](C)C(=O)O[C@@H](C)/C=C/C=C\[C@@H](C)[C@@H]3C=C[C@@H]2C1.CC1=C[C@@H](C)[C@H]2[C@@H]3C(=O)C(Cl)=C([O-])[C@H](C)C(=O)O[C@@H](C)/C=C/C=C\[C@@H](C)[C@@H]3C=C[C@@H]2C1.[Mg+2].[Na+] [ChB2, reference compound] |  |  |  |  |  |  | 0.8 µg/mL | 1.6 µg/mL | 3.2 µg/mL | 3.2 µg/mL | >3.2 µg/mL | 0.4 µg/mL |  |  |  |  | 
8 | CC1C=CC=CC(C)C2C=CC3CC4(C)OC4C(C)C3C2C(=O)CC(=O)C(C)C(=O)O1 (centres unmarked) [Dehalogenil-Epo1] |  | 3.2 µg/mL (≈ 7.5 µM) |  |  |  |  | 3.2 µg/mL (≈ 7.5 µM) |  | 3.2 µg/mL (≈ 7.5 µM) | 3.2 µg/mL (≈ 7.5 µM) | 3.2 µg/mL (≈ 7.5 µM) | 3.2 µg/mL (≈ 7.5 µM) | 9.85 µM |  |  | 1.31 | 4.9
